Assays:
[1] = test system: leukocytes in porcine blood; assay: Microscopic flow chamber: leukocyte interaction with polysulfone membrane; type: cell-based
From the text: A custom microscopic flow chamber system was set up to enable microscopic analysis of leukocyte interaction with the SCD membrane. The flow chamber consisted of a polycarbonate housing with an inlet and outlet for perfusion. A polysulfone membrane was affixed to the polycarbonate block with a gasket which directed shear flow. The thickness of the gasket (100 μm) along with the length (2 cm) and the width of the channel (1.5 mm) determined the volume of the flow chamber. Microscopic imaging was accomplished through an optical window made up of a cover glass affixed to the bottom of the polycarbonate block. Either isolated blood or purified leukocytes were used for this study.
Isolated blood was prone to activation from excessive handling. […] Blood passed through the flow chamber at a rate of 20 μL/min with calculated shear forces between 1-10 dynes/cm^2. […]
Microscopic analysis of cell capture events was accomplished using either a Zeiss Axiovert 200M or Axio-Observer epifluorescence microscope equipped with a microscope stage-top incubator to control environmental temperature and CO2 content. Fluorescence images were acquired with either a Zeiss MRm3 or an Icc1 camera at a frequency of 1 frame/second for 5 minutes, for analysis of leukocyte/membrane interaction, and at 1 frame/minute for 1 hour sequences, for analysis of long term leukocyte attachment. […]

[2] = test system: leukocytes in human whole blood; assay: In vitro whole blood assay of leukocyte activation; type: cell-based; details: for CD11b: n = 3; for Lactoferrin: n = 4; for Elastase: n = 5
Procedure: Heparinized human whole blood was added to tubes with or without lipopolysaccharide (LPS) (10 μg/mL) or formyl-Methionyl-Leucyl-Phenylalanine (fMLF, 50 nM). […] The release of IL-6, IL-8, or IL-10 was measured using commercially available ELISA kits from R&D Systems. The release of elastase was measured using a commercially available ELISA kit from Bender MedSystems. The release of lactoferrin was measured using a commercially available ELISA kit from EMD Chemicals. […] Samples were incubated for various times at 37° C. and 5% CO2. CD11b activation was measured using an FITC-conjugated mouse anti-human antibody (AbD Serotech) and evaluated on an Accuri C6 flow cytometer.

For `O=C(O)CC(O)(CC(=O)O)C(=O)O` [Citrate], the “leukocyte attachment to polysulfone membranes during shear flow” value ([1]; LPS activated, low ionized calcium flow chambers) was “statistically significant decrease”, the “blood iCa level” value ([1]; after addition of citrate (from 1.32±0.05)) was 0.32 ± 0.05 mmol/L and the CD11b ([2]; Baseline) was 7.32 ± 0.47 MFI × 10^3. For the same compound, the Lactoferrin ([2]; Baseline) was 1.67 ± 0.29 mg/mL, the Elastase ([2]; Baseline) was 0.94 ± 0.14 mg/mL and the CD11b ([2]; Stimulated (LPS, fMLF)) was 28.72 ± 2.95 MFI × 10^3. The Lactoferrin ([2]; Stimulated (LPS, fMLF)) was 3.43 ± 0.18 mg/mL, the Elastase ([2]; Stimulated (LPS, fMLF)) was 0.91 ± 0.28 mg/mL and the iCa levels ([2]; citrate treated samples (1.25 mM nontreated)) was < 0.25 mM.

From patent US10722637B2, “Cartridge and method for increasing myocardial function” (SeaStar Medical, Inc., priority 2012, dated 2020)
